Values quoted from earlier work as cited in patent US12577179B2, “Methods and compositions for soil regeneration and improved soil hydrology” (Locus Solutions IPCo, LLC, priority 2021, dated 2026).

Conditions: surfactant micelles; no method or source given

| micelle size | Compound |
| --- | --- |
| 3.5-6 nm | CCCCCCCCCCCCOS(=O)(=O)[O-].[Na+] [sodium dodecyl sulfate] |
| 11.7 nm | CCCCCCCC/C=C\CCCCCCCC(=O)OCCOCC(OCCO)C1OCC(OCCO)C1OCCO (stereo not shown) [Tween-80] |
| 15.4 nm | Nonidet P40 |
| 7.5 nm | Triton X-100 |
